Tests used:
[1] = test system: MDA-MB-435; assay: Compound was evaluated for cytotoxicity against MDA-MB-435 breast cancer cell line; type: functional; conditions: Homo sapiens
[2] = test system: NCI-H23; assay: Compound was evaluated for cytotoxicity against NCI-H23 non small cell kung cancer cell line; type: functional; conditions: Homo sapiens
[3] = test system: MOLT-4; assay: Compound was evaluated for cytotoxicity against MOLT-4 leukemia cell line; type: functional; conditions: Homo sapiens
[4] = test system: NCI/ADR-RES; assay: Compound was evaluated for cytotoxicity against MCF 7/ADR-RES breast cancer cell line; conditions: Homo sapiens
[5] = test system: CCRF-CEM; assay: Compound was evaluated for cytotoxicity against CCRF-CEM leukemia cell line; type: functional; conditions: Homo sapiens
[6] = test system: NCI-H522; assay: Compound was evaluated for cytotoxicity against […] non small cell kung cancer cell line; type: functional; conditions: Homo sapiens
[7] = test system: KB; assay: Effective cytotoxic dose against KB cells was evaluated; type: functional; conditions: Homo sapiens, read-out: ED50 (the source's name)
[8] = test system: LOX IMVI; assay: Compound was evaluated for cytotoxicity against LOX IMVI melanoma cell line; type: functional; conditions: Homo sapiens
[9] = test system: MCF7; assay: Compound was evaluated for cytotoxicity against MCF-7 breast cancer cell line; type: functional; conditions: Homo sapiens
[10] = test system: HCT-15; assay: Compound was evaluated for cytotoxicity against HCT-15 colon cancer cell line; type: functional; conditions: Homo sapiens
[11] = test system: SF-539; assay: Compound was evaluated for cytotoxicity against SF-539 CNS cancer cell line; type: functional; conditions: Homo sapiens
[12] = test system: SR; assay: Compound was evaluated for cytotoxicity against SR leukemia cell line; type: functional; conditions: Homo sapiens
[13] = test system: MDA-N; assay: Compound was evaluated for cytotoxicity against MDA-N breast cancer cell line; type: functional; conditions: Homo sapiens
[14] = test system: OVCAR-3; assay: Compound was evaluated for cytotoxicity against OVCAR-3 Ovarian cancer cell line; type: functional; conditions: Homo sapiens
[15] = test system: SW-620; assay: Compound was evaluated for cytotoxicity against SW-620 colon cancer cell line; type: functional; conditions: Homo sapiens
[16] = test system: SNB-19; assay: Compound was evaluated for cytotoxicity against SNB-19 CNS cancer cell line; type: functional; conditions: Homo sapiens
[17] = test system: IGROV-1; assay: Compound was evaluated for cytotoxicity against IGROV1 Ovarian cancer cell line; type: functional; conditions: Homo sapiens
[18] = test system: SK-MEL-5; assay: Compound was evaluated for cytotoxicity against SK-MEL-5 melanoma cell line; type: functional; conditions: Homo sapiens
[19] = test system: NCI-H460; assay: Compound was evaluated for cytotoxicity against NCI-H460 non small cell kung cancer cell line; type: functional; conditions: Homo sapiens
[20] = test system: MCF7; assay: Compound was evaluated for cytotoxicity against MCF-7 breast cancer cell lines; type: functional; conditions: Homo sapiens
[21] = test system: NCI-H23; assay: Compound was evaluated for cytotoxicity against NCI-H23 non small cell lung cancer cell line; type: functional; conditions: Homo sapiens
[22] = test system: SW-620; assay: Compound was evaluated for cytotoxicity against SW-620 colon cancer cell line; conditions: Homo sapiens
[23] = test system: SNB-19; assay: Compound was evaluated for cytotoxicity against SNB-19 CNS cancer cell line; conditions: Homo sapiens
[24] = test system: NCI-H460; assay: Compound was evaluated for cytotoxicity against NCI-H460 non small cell lung cancer cell line; type: functional; conditions: Homo sapiens
[25] = test system: HCT-15; assay: Compound was evaluated for cytotoxicity against HCT-15 colon cancer cell line; conditions: Homo sapiens
[26] = test system: NCI-H522; assay: Compound was evaluated for cytotoxicity against NCI-H522 non small cell lung cancer cell line; conditions: Homo sapiens
[27] = test system: SF-539; assay: Compound was evaluated for cytotoxicity against SF-539 CNS cancer cell line; conditions: Homo sapiens
[28] = test system: NCI-H522; assay: Compound was evaluated for cytotoxicity against […] non small cell lung cancer cell line; type: functional; conditions: Homo sapiens

Structure (SMILES)	GI50 [1] [nM]	GI50 [3] [nM]	GI50 [4] [nM]	GI50 [5] [nM]	EC50 [7] [nM]	GI50 [8] [nM]	GI50 [9] [nM]	GI50 [10] [nM]	GI50 [11] [nM]	GI50 [13] [nM]	GI50 [14] [nM]	GI50 [15] [nM]	GI50 [16] [nM]	GI50 [17] [nM]	GI50 [18] [nM]	GI50 [21] [nM]	GI50 [24] [nM]	also measured
CC(=O)c1ccc2c(c1)C(=O)c1sc(C(C)=O)cc1C2=O	178	66.1	324	182	~1500	219	316	40.7	355	316	331	204	1350	427	174	–	–	GI50 [2]: 603 nM; GI50 [6]: 224 nM; GI50 [12]: 24.6 nM; GI50 [19]: 363 nM
CC(=O)c1cc2c(o1)C(=O)c1ccccc1C2=O [NAPABUCASIN]	–	–	–	–	4200	–	–	–	–	–	–	–	–	–	–	–	–	–
CC(=O)c1csc2c1C(=O)c1ccccc1C2=O	324	< 10	2880	1550	–	2340	–	–	–	933	3550	–	–	2450	170	1050	1320	GI50 [20]: 2090 nM; GI50 [22]: 2190 nM; GI50 [23]: 1780 nM; GI50 [25]: 17400 nM; GI50 [26]: 1740 nM; GI50 [27]: 2040 nM
CC(=O)c1cc2c(s1)C(=O)c1ccccc1C2=O	339	2040	1910	1000	–	347	1700	708	759	1200	501	457	501	1780	347	447	457	GI50 [28]: 407 nM
CC(=O)c1ccc2c(c1)C(=O)c1scc(C(C)=O)c1C2=O	–	–	–	–	450	–	–	–	–	–	–	–	–	–	–	–	–	–
